Assay results taken from patent US9067888B2, “Inhibitors of protein kinases” (Ingenium Pharmaceuticals GmbH, priority 2010, dated 2015).

How the values were obtained:
CDK9 = CDK9 (Homo sapiens (Human), UniProt P50750); assay: In vitro kinase inhibition, KinaseProfiler service of Millipore, residual activity; type: biochemical; details: for remaining activity at 0.01 µM: residual activity at 10 nM compound, read-out: CDK9 10 nM (RA in %); for remaining activity at 0.1 µM: residual activity at 100 nM compound, read-out: CDK9 100 nM (RA in %)
Chain of CDK9 (P50750 whole entry): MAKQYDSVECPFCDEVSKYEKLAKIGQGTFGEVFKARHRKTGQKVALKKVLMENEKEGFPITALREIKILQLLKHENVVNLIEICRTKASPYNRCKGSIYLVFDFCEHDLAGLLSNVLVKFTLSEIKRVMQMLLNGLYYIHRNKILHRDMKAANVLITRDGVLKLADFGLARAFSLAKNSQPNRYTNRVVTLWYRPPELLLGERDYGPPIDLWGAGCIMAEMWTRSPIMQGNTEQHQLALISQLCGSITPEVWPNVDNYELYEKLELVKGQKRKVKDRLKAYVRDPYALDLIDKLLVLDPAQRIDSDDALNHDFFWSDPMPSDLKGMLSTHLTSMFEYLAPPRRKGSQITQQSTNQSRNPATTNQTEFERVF
Chain of CDK9 (O60563 whole entry partner): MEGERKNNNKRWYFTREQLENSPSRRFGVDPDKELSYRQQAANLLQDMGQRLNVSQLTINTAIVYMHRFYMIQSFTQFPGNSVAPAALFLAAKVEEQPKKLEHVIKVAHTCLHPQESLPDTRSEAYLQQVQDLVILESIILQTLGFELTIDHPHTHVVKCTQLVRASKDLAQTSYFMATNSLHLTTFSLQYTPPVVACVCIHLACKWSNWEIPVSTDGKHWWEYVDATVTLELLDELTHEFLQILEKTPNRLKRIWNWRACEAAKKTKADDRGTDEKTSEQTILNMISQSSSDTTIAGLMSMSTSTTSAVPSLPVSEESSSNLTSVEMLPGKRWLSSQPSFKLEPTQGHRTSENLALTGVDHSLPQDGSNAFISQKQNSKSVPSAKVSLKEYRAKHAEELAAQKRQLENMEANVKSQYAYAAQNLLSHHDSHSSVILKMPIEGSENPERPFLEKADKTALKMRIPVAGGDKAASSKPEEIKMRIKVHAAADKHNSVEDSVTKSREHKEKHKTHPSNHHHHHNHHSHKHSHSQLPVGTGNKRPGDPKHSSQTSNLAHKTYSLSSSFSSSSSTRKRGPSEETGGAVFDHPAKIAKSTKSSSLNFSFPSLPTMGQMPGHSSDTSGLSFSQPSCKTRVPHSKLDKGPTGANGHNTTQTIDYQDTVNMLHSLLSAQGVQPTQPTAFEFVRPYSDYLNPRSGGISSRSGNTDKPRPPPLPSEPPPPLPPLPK
Source text: (§1) In vitro kinase assay analysis may be performed using standard techniques described in the art. These techniques are also used by commercial services providers in order to offer in vitro kinase activity assay services, e.g. the assays offered by Millipore Inc. (worldwide website www(dot)millipore.com), ProQinase GmbH (worldwide website www(dot)proqinase.de) and others.
In vitro kinase inhibition results shown in columns 7 to 9 in Table 1 were obtained by employing the KinaseProfiler™ service of Millipore and used to select compounds displaying specificity for CDK9. Specifically, it was intended to distinguish the CDK9-specific compounds from other compounds having significant inhibitory potency also with regard to other CDKs.

CDK6/CycD3 = CDK6/CycD3 (Homo sapiens (Human), UniProt Q00534); assay: Kinase activity assay IC50 profile; type: biochemical; details: read-out: IC50 CDK6/D3
Chain of CDK6/CycD3 (Q00534 whole entry): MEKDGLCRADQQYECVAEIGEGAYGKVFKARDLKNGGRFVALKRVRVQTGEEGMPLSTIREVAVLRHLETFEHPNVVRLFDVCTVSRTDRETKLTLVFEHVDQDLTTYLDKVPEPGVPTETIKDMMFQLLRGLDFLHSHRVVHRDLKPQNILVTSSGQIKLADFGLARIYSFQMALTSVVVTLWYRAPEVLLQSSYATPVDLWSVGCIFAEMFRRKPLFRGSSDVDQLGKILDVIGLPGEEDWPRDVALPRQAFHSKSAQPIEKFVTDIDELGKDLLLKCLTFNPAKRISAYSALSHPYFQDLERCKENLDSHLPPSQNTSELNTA
Chain of CDK6/CycD3 (P30281 whole entry partner): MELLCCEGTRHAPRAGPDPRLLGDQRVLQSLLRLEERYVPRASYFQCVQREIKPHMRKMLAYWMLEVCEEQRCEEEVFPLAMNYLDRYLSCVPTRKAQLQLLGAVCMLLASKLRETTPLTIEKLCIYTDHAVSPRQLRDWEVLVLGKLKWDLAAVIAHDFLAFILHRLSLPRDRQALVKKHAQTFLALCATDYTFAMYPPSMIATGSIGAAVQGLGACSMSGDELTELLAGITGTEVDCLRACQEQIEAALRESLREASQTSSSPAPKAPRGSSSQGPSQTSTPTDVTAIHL

CDK5/p35NCK = CDK5/p35NCK (Homo sapiens (Human), UniProt Q00535); assay: Kinase activity assay IC50 profile; type: biochemical; details: read-out: IC50 CDK5/p35
Chain of CDK5/p35NCK (Q00535 whole entry): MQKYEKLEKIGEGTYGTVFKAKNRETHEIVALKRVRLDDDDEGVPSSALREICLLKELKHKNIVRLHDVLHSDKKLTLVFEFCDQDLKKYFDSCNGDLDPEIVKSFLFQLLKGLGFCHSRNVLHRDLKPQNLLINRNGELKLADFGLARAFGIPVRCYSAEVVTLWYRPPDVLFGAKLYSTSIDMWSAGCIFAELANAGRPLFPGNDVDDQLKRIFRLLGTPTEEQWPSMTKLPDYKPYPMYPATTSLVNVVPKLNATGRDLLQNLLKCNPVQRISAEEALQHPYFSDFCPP
Chain of CDK5/p35NCK (Q15078 whole entry partner): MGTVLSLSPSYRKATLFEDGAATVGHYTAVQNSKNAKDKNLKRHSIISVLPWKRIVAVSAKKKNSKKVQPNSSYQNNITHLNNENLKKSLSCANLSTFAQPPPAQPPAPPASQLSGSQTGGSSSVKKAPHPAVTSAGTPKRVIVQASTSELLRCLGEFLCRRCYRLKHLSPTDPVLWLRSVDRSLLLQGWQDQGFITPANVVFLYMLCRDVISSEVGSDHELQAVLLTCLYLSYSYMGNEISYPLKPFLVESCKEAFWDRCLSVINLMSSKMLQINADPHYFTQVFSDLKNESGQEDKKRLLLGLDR
Protocol: as §1
(§2) On the day of the kinase inhibition assay, 451 μl H2O were added to each well of a set of compound dilution plates. To minimize precipitation, the H2O was added to the plates only a few minutes before the transfer of the compound solutions into the assay plates. The plates were shaken thoroughly, resulting in “compound dilution plates/10%/DMSO” with a concentration of 1×10^−03 M/10% DMSO to 3×10^−08 M/10% DMSO in semilog steps. These plates were used for the transfer of 5 μl compound solution into the “assay plates”. The compound dilution plates were discarded at the end of the working day. For the assays (see below), 5 μl solution from each well of the compound dilution plates were transferred into the assay plates. The final volume of the assay was 50 μl. […]
(§3) The median value of the counts in column 1 (n=8) of each assay plate was defined as “low control”. This value reflects unspecific binding of radioactivity to the plate in the absence of a protein kinase but in the presence of the substrate. […]

CDK2/CycA = CDK2/CycA (Homo sapiens (Human), UniProt P24941); assay: Kinase activity assay IC50 profile; type: biochemical
Protocol: as §1, §2, §3

CDK3/CycE = CDK3/CycE (Homo sapiens (Human), UniProt Q00526); assay: Kinase activity assay IC50 profile; type: biochemical; details: read-out: IC50 CDK3/E
Protocol: as §1, §2, §3

CDK1/CycB = CDK1/CycB (Homo sapiens (Human), UniProt P06493); assay: Kinase activity assay IC50 profile; type: biochemical; details: read-out: IC50 CDK1/B
Protocol: as §1, §2, §3

[1] = system: TNF-alpha inducible reporter gene; assay: Inhibition of TNF-alpha-induced reporter gene expression (luciferase) in HeLa-derived cell line; type: cell-based, human; details: Homo sapiens, 6 h, remaining luciferase activity in presence of 3 μM of compound as ratio of DMSO-treated cells, TNF-alpha 50 ng/ml, read-out: Efficacy (ratio to DMSO) TNF-alpha induced response
Source text: TNF-alpha responsive cell lines like the human HeLa cell line can be used to study cellular responses to TNF-alpha, e.g. transcriptional regulation of a transfected TNF-alpha responsive reporter gene, and effects of kinase inhibitors on this response.
In order to analyse compound effects on TNF-alpha mediated transcriptional response, a HeLa-derived cell line stably transfected with a TNF-alpha inducible reporter gene was used (Panomics Catalog No. RC0013). The cell line was obtained by co-transfection of a luciferase reporter gene (Panomics P/N LR0051) and pHyg into human cervical epithelial HeLa cells, followed by hygromycin selection. TNFα-induced luciferase activity was used to select clones from the hygromycin-resistant cells. The cell line was maintained and stimulated according to the manufacturer's instructions. Briefly, cells were seeded at 5×10^5/well in 1 ml of growth medium in a 12-well plate and incubated in a humidified incubator at 37° C. and 5% CO2 for 24 hours. Medium was replaced with 1 ml of serum free medium and compounds were added up to concentrations of […]. After 1 hour of incubation, TNF-alpha was added to achieve a final concentration of 50 ng/ml. The culture dish was further incubated in a humidified incubator at 37° C. and 5% CO2 for 6 hours, medium was removed and 100 μL of lysis buffer were added to each well and the assay for luciferase activity was performed according to assay manufacturer's (Promega P/N E1500) recommendations. For more information about this cell line, go to worldwide website www(dot)panomics.com.
Compound effects on TNF-alpha-induced reporter gene expression is shown in column 6 in Table 1 given below. Indicated is the remaining luciferase activity after incubation in presence of 3 μM of compound as a ratio of the activity of DMSO-treated cells without compound. Specifically, it was intended to distinguish cell permeable compounds from other compounds having significant inhibitory potency with regard to other CDKs, but fail to penetrate cells or are unstable under the conditions of the experiment.

IRAK1 = IRAK1 (Homo sapiens (Human), UniProt P51617); assay: Kinase activity assay IC50 profile; type: biochemical
Chain of IRAK1 (P51617 whole entry): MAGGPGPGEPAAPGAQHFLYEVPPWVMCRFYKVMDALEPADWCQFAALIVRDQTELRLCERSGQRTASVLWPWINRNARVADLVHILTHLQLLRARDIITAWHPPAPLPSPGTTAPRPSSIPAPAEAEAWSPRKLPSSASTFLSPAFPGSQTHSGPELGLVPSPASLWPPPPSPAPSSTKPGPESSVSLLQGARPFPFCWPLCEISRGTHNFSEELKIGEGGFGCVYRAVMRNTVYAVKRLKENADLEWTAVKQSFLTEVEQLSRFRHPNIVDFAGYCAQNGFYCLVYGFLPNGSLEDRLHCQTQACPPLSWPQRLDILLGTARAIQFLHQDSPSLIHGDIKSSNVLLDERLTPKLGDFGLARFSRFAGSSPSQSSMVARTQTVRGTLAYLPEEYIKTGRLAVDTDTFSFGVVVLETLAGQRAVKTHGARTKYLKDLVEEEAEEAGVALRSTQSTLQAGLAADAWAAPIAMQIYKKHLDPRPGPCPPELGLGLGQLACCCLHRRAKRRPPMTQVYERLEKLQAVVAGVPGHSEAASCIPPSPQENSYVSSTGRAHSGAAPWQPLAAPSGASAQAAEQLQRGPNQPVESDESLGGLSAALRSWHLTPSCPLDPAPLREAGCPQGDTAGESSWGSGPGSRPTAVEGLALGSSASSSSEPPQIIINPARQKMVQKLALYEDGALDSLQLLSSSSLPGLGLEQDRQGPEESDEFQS
Protocol: as §1
(§4) On the day of the kinase inhibition assay, 451 μl H2O were added to each well of a set of compound dilution plates. To minimize precipitation, the H2O was added to the plates only a few minutes before the transfer of the compound solutions into the assay plates. The plates were shaken thoroughly, resulting in “compound dilution plates/10%/DMSO” with a concentration of 1×10^−03 M/10% DMSO to 3×10^−08 M/10% DMSO in semilog steps. These plates were used for the transfer of 5 μl compound solution into the “assay plates”. The compound dilution plates were discarded at the end of the working day. For the assays (see below), 5 μl solution from each well of the compound dilution plates were transferred into the assay plates. The final volume of the assay was 50 μl. All compounds were tested at 10 final assay concentrations in the range from 1×10^−04 M to 3×10^−09 M. The final DMSO concentration in the reaction mixtures was 1% in all cases.
(§5) All kinase assays were performed in 96-well FlashPlates™ from Perkin Elmer/NEN (Boston, Mass., USA) in a 50 μl reaction volume. The reaction mixture was pipetted in four steps in the following order: • 20 μl of assay buffer (standard buffer) • 5 μl of ATP solution (in H2O) • 5 μl of test compound (in 10% DMSO) • 10 μl of substrate/10 μl of enzyme solution (premixed)
(§6) The assay for all enzymes contained 60 mM HEPES-NaOH (pH 7.5), 3 mM MgCl2, 3 mM MnCl2, 3 μM Na-Orthovanadate, 1.2 mM DTT, 50 μg/ml PEG2000, 1 μM [^33P]-ATP (approx. 5 ×1005 cpm per well).
(§7) Reaction mixtures were incubated at 30° C. for 80 min. The reaction was stopped with 50 μl of 2% (v/v) H3PO4, plates were aspirated and washed two times with 200 μl H2O or 200 μl 0.9% (w/v) NaCl. Incorporation of ^33P was determined with a microplate scintillation counter (Microbeta, Wallac).
(§8) The median value of the counts in column 1 (n=8) of each assay plate was defined as “low control”. This value reflects unspecific binding of radioactivity to the plate in the absence of a protein kinase but in the presence of the substrate. […] The residual activity (in %) for each well of a particular plate was calculated by using the following formula: Res. Activity(%)=100×[(cpm of compound−low control)/(high control−low control)]
(§9) The residual activities for each concentration and the compound IC50 values were calculated using Quattro Workflow V2.0.1.3 (Quattro Research GmbH, Munich, Germany; worldwide website www(dot)quattro-research.com). […]

CDK7/CycH/MAT1 = CDK7/CycH/MAT1 (Homo sapiens (Human), UniProt P50613); assay: Kinase activity assay IC50 profile; type: biochemical; details: read-out: IC50 CDK7/H/MAT1
Chain of CDK7/CycH/MAT1 (P50613 whole entry): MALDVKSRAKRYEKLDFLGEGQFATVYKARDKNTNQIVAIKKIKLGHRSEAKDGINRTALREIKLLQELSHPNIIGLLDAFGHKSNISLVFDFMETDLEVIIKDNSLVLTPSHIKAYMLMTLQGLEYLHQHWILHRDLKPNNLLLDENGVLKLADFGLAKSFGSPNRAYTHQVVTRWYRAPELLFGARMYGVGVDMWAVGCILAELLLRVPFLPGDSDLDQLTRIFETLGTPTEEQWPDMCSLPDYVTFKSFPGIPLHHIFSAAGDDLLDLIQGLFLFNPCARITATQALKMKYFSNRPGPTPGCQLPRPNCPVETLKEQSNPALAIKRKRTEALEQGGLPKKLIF
Chain of CDK7/CycH/MAT1 (P51946 whole entry partner): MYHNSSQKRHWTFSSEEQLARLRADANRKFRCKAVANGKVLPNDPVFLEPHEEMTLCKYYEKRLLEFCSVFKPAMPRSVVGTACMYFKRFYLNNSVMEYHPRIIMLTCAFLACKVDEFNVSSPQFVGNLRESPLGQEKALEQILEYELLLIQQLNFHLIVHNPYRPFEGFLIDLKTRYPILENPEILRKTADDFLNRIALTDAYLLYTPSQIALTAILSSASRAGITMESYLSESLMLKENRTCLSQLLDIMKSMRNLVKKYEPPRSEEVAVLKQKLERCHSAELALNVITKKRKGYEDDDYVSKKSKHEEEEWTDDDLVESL
Chain of CDK7/CycH/MAT1 (P51948 whole entry partner): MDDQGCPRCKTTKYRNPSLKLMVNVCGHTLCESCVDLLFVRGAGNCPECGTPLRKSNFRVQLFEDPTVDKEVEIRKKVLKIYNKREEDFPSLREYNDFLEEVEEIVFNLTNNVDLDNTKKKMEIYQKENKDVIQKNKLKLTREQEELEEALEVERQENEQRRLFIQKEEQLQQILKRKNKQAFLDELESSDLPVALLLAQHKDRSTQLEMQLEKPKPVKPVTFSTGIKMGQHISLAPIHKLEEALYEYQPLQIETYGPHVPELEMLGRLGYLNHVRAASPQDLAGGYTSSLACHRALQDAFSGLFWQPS
Protocol: as §1, §4, §5, §6, §7, §8, §9

GSK3-beta = GSK3-beta (Homo sapiens (Human), UniProt P49841); assay: Kinase activity assay IC50 profile; type: biochemical; details: read-out: IC50 GSK3b
Chain of GSK3-beta (P49841 whole entry): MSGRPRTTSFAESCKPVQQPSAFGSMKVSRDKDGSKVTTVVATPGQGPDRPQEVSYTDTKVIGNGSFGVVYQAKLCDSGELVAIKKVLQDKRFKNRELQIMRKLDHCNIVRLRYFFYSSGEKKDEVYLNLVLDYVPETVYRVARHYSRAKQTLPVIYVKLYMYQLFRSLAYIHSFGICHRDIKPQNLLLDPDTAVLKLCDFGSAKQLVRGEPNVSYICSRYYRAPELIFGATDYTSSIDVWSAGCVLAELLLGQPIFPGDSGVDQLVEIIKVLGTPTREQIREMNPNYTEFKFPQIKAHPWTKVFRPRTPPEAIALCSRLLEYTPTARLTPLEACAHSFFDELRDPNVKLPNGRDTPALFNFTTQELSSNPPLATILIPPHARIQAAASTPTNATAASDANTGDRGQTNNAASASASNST
Protocol: as §1, §4, §5, §6, §7, §8, §9

GSK3-alpha = GSK3-alpha (Homo sapiens (Human), UniProt P49840); assay: Kinase activity assay IC50 profile; type: biochemical; details: read-out: IC50 GSK3a
Chain of GSK3-alpha (P49840 whole entry): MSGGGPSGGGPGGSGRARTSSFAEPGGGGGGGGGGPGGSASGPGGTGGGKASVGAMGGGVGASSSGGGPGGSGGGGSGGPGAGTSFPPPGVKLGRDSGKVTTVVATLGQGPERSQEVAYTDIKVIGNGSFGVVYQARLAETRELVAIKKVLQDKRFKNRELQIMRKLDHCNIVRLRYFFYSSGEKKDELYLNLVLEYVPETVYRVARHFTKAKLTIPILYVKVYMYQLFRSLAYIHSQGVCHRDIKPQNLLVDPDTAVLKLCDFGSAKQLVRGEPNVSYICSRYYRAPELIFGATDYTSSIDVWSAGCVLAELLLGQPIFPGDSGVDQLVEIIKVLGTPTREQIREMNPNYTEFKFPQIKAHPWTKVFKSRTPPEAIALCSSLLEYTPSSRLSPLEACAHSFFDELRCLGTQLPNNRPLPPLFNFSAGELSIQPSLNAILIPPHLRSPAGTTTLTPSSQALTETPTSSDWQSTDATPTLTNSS
Protocol: as §1, §4, §5, §6, §7, §8, §9

| Structure (SMILES) | remaining activity at 0.01 µM (CDK9) [%] | remaining activity at 0.1 µM (CDK9) [%] | IC50 (CDK6/CycD3) [nM] | IC50 (CDK5/p35NCK) [nM] | IC50 (CDK2/CycA) [nM] | IC50 (CDK3/CycE) [nM] | IC50 (CDK1/CycB) [nM] | activity at 3 µM [1] [%] | IC50 (IRAK1) [nM] | IC50 (CDK7/CycH/MAT1) [nM] | IC50 (GSK3-beta) [nM] | IC50 (GSK3-alpha) [nM] |
| --- | --- | --- | --- | --- | --- | --- | --- | --- | --- | --- | --- | --- |
| COc1cc(F)ccc1-c1ccnc(NC(=O)[C@H]2CCC[C@@H](NC(C)=O)C2)c1 (relative stereo) [Example 33, cis-3-Acetamido-N-(4-(4-fluoro-2-methoxyphenyl)pyridin-2-yl)cyclo-hexanecarboxamide] | 29 | 3 | > 5000 | 1080 | 168 | 219 | 94 | 3 | > 5000 | > 5000 | 903 | 160 |
| COc1cc(F)ccc1-c1ccnc(NC(=O)[C@@H]2CC[C@H](NCc3ccccc3)C2)c1 [Example 37, (1R,3S)-3-(Benzylamino)-N-(4-(4-fluoro-2-methoxyphenyl)pyridin-2-yl)cyclopentanecarboxamide] | 20 | 2 | – | – | – | – | – | 2 | – | – | – | – |
| COc1cc(F)ccc1-c1ccnc(NC(=O)Cc2cccs2)c1 [Example 9, N-(4-(4-Fluoro-2-methoxyphenyl)pyridin-2-yl)-2-(thiophen-2-yl)acetamide] | 76 | 16 | – | – | – | – | – | 4 | – | – | – | – |
| COc1ccc(CC(=O)Nc2cc(-c3ccc(F)cc3OC)ccn2)cc1 [Example 6, N-(4-(4-Fluoro-2-methoxyphenyl)pyridin-2-yl)-2-(4-methoxyphenyl)-acetamide] | 68 | 16 | – | – | – | – | – | 7 | – | – | – | – |
